Reference: ChEMBL document CHEMBL1147038, “Structural basis for the specific inhibition of protein kinase G, a virulence factor of Mycobacterium tuberculosis” (Proc Natl Acad Sci U S A, 2007)
The source made the active and inactive calls. The calls are words filed in the database; no cut-off is given here.

Assays:
[1] = tested on: Mycobacterium tuberculosis; assay: Inhibition of Mycobacterium tuberculosis PKnGdeltaN mutant at 63 uM by autoradiography
[2] = tested on: Mycobacterium tuberculosis; assay: Inhibition of Mycobacterium tuberculosis PKnG-I87S/A92S mutant at 25 uM by autoradiography

SMILES: NC(=O)c1c(NC(=O)C2CC2)sc2c1CCCC2
- Activity [1]: Active
- inhibition [2]: > 50%
